Measurements as given in US20210277003A1, “OGA INHIBITOR COMPOUNDS” (Janssen Pharmaceutica NV, priority 2018, published 2021).

Experiments:
[1] = target: T1, recombinant human Meningioma Expressed Antigen 5 (MGEA5), also referred to as O-GlcNAcase (OGA) (Homo sapiens, UniProt O60502); assay: OGA biochemical assay: inhibition of hydrolysis of fluorescein mono-ß-D-N-Acetyl-Glucosamine (FM-GlcNAc), fluorescence readout; conditions: FM-GlcNAc substrate; for Emax: read-out: Enzymatic Emax (%); for IC50: read-out: Enzymatic hOGA, pIC50 (converted)
T1 construct: Full length OGA enzyme was purchased at OnGene (cat #TP322411); purchased OnGene (so in the source)
T1 sequence (O60502 1-916): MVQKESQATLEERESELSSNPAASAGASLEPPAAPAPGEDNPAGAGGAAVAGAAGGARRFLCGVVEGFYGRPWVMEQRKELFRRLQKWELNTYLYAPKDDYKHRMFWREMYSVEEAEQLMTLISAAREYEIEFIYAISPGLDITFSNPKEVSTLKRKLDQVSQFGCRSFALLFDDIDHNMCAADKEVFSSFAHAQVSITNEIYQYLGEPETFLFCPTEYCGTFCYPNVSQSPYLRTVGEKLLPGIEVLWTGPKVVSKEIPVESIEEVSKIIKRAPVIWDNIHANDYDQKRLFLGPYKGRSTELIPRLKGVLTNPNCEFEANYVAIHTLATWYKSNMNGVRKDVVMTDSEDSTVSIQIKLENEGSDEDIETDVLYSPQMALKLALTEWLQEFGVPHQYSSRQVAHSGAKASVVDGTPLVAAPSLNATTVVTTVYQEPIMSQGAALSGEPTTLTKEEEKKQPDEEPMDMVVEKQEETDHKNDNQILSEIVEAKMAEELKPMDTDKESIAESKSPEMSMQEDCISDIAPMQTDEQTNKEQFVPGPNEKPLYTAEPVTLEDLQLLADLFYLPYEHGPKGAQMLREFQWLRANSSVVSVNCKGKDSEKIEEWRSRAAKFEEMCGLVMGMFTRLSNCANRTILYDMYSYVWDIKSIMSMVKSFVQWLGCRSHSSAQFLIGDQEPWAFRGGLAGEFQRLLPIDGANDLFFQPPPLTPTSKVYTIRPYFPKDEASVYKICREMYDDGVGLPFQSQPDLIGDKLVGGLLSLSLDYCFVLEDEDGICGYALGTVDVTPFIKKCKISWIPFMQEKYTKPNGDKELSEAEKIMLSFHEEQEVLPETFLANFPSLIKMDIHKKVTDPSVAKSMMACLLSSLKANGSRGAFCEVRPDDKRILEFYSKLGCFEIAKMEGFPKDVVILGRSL
From the text: The assay is based on the inhibition of the hydrolysis of fluorescein mono-ß-D-N-Acetyl-Glucosamine (FM-GlcNAc) (Mariappa et al. 2015, Biochem J 470:255) by the recombinant human Meningioma Expressed Antigen 5 (MGEA5), also referred to as O-GlcNAcase (OGA). The hydrolysis FM-GlcNAc (Marker Gene technologies, cat #M1485) results in the formation of ß-D-N-glucosamineacetate and fluorescein. The fluorescence of the latter can be measured at excitation wavelength 485 nm and emission wavelength 538 nm. An increase in enzyme activity results in an increase in fluorescence signal. Full length OGA enzyme was purchased at OnGene (cat #TP322411). The enzyme was stored in 25 mM Tris.HCl, pH 7.3, 100 mM glycine, 10% glycerol at −20° C. Thiamet G and GlcNAcStatin were tested as reference compounds (Yuzwa et al. 2008 Nature Chemical Biology 4:483; Yuzwa et al. 2012 Nature Chemical Biology 8:393). The assay was performed in 200 mM Citrate/phosphate buffer supplemented with 0.005% Tween-20. 35.6 g Na2HPO4 2 H2O (Sigma, #C0759) were dissolved in 1 L water to obtain a 200 mM solution. 19.2 g citric acid (Merck, #1.06580) was dissolved in 1 L water to obtain a 100 mM solution. pH of the sodium phosphate solution was adjusted with the citric acid solution to 7.2. The buffer to stop the reaction consists of a 500 mM Carbonate buffer, pH 11.0. 734 mg FM-GlcNAc were dissolved in 5.48 mL DMSO to obtain a 250 mM solution and was stored at −20° C. OGA was used at a 2 nM concentration and FM-GlcNAc at a 100 uM final concentration. Dilutions were prepared in assay buffer. 50 nl of a compound dissolved in DMSO was dispensed on Black Proxiplate™ 384 Plus Assay plates (Perkin Elmer, #6008269) and 3 μl fl-OGA enzyme mix added subsequently. Plates were pre-incubated for 60 min at room temperature and then 2 μl FM-GlcNAc substrate mix added. […] Plates were briefly centrifuged for 1 min at 1000 rpm and incubate at room temperature for 6 h. To stop the reaction 5 μl STOP buffer were added and plates centrifuge again 1 min at 1000 rpm. Fluorescence was quantified in the Thermo Scientific Fluoroskan Ascent or the PerkinElmer EnVision with excitation wavelength 485 nm and emission wavelength 538 nm. For analysis a best-fit curve is fitted by a minimum sum of squares method. From this an IC50 value and Hill coefficient was obtained. High control (no inhibitor) and low control (saturating concentrations of standard inhibitor) were used to define the minimum and maximum values.

[2] = system: OGA in HEK293 cells inducible for P301L mutant human Tau (isoform 2N4R); assay: OGA cellular assay: immunocytochemical detection of O-GlcNAcylated proteins (CTD110.6 antibody); type: cell-based; conditions: 6 hours incubation; for Emax / EC50: Homo sapiens, HEK293, 6 h; for EC50: read-out: Cellular hOGA, pEC50 (converted)
Protocol: HEK293 cells inducible for P301L mutant human Tau (isoform 2N4R) were established at Janssen. Thiamet-G was used for both plate validation (high control) and as reference compound (reference EC50 assay validation). OGA inhibition is evaluated through the immunocytochemical (ICC) detection of O-GlcNAcylated proteins by the use of a monoclonal antibody (CTD110.6; Cell Signaling, #9875) detecting 0-GlcNAcylated residues as previously described (Dorfmueller et al. 2010 Chemistry & biology, 17:1250). Inhibition of OGA will result in an increase of O-GlcNAcylated protein levels resulting in an increased signal in the experiment. Cell nuclei are stained with Hoechst to give a cell culture quality control and a rough estimate of immediate compounds toxicity, if any. ICC pictures are imaged with a Perkin Elmer Opera Phenix plate microscope and quantified with the provided software Perkin Elmer Harmony 4.1.
Cells were propagated in DMEM high Glucose (Sigma, #D5796) following standard procedures. 2 days before the cell assay cells are split, counted and seeded in Poly-D-Lysine (PDL) coated 96-wells (Greiner, #655946) plate at a cell density of 12,000 cells per cm^2 (4,000 cells per well) in 100p of Assay Medium (Low Glucose medium is used to reduce basal levels of GlcNAcylation) (Park et al. 2014 The Journal of biological chemistry 289:13519). At the day of compound test medium from assay plates was removed and replenished with 90 µl of fresh Assay Medium. 10p of compounds at a 10 fold final concentration were added to the wells. Plates were centrifuged shortly before incubation in the cell incubator for 6 hours. DMSO concentration was set to 0.2%. Medium is discarded by applying vacuum. For staining of cells medium was removed and cells washed once with 100 μl D-PBS (Sigma, #D8537). From next step onwards unless other stated assay volume was always 50p and incubation was performed without agitation and at room temperature. Cells were fixed in 50 μl of a 4% paraformaldehyde (PFA, Alpha aesar, #043368) PBS solution for 15 minutes at room temperature. […] Before analysis samples were washed 2 times manually for 5 minutes in ICC base buffer.
Imaging is performed using Perkin Elmer Phenix Opera using a water 20× objective and recording 9 fields per well. Intensity readout at 488 nm is used as a measure of O-GlcNAcylation level of total proteins in wells. To assess potential toxicity of compounds nuclei were counted using the Hoechst staining. IC50-values are calculated using parametric non-linear regression model fitting. As a maximum inhibition Thiamet G at a 200 uM concentration is present on each plate. In addition, a concentration response of Thiamet G is calculated on each plate.

SMILES | Emax [1] [%] | IC50 [1] [nM] | Emax ([2]; maximum = Thiamet G 200 uM) [%] | EC50 [2] [nM] | Enzymatic hOGA; pIC50 [1] | Enzymatic Emax (%) [1] [%] | Cellular hOGA; pEC50 [2] | Cellular Emax (%) ([2]; maximum = Thiamet G 200 uM)
Cc1cc(OC(F)F)nc(C)c1Nc1nccc2c1ccn2CC(F)(F)C(C)C [Compound 188] | 100 | 1.62 | 89.1 | ~4.37 | – | – | – | –
CCCCn1ccc2c(Nc3c(C)ccc4[nH]c(C)nc34)nccc21 [Compound 11] | 100 | – | 80 | 288 | 7.06 | – | – | –
Cc1ccnc(OC(F)F)c1Nc1nccc2c1ccn2CC1CCO1 (stereo not drawn) [Compound 119] | 105 | – | 80.3 | 102 | 8 | – | – | –
Cc1ccnc(C(F)F)c1Nc1nccc2c1ccn2CC1CC(F)(F)C1 [Compound 115] | 99.6 | – | 52.3 | ~891 | 7.2 | – | – | –
CCCCn1ccc2c(Nc3c(Cl)ccc4c3CCO4)nccc21 [Compound 8] | 102 | – | 87 | 110 | 8.11 | – | – | –
Clc1cccc(Cl)c1Nc1nccc2c1ccn2CCC1CC1 [Compound 70] | 103 | 1.7 | 82 | 37.2 | – | – | – | –
Cc1cc(-c2cnn(C)c2)cc(C)c1Nc1nccc2c1ccn2CC(F)(F)C(C)C [Compound 178] | 101 | 1.12 | 103 | 2.95 | – | – | – | –
FCCCCn1ccc2c(Nc3c(Cl)cccc3Cl)nccc21 [Compound 7] | 103 | – | 84 | 214 | 7.98 | – | – | –
Clc1cccc(Cl)c1Nc1nccc2c1ccn2CC1COC1 [Compound 35] | 100 | 148 | 20 | > 1000 | – | – | – | –
Cc1cc(C(F)(F)F)cc(C)c1Nc1nccc2c1ccn2CC(F)(F)C(C)C [Compound 176] | 103 | 1.55 | 101 | 5.5 | – | – | – | –
Cc1cc(F)cc(C)c1Nc1nccc2c1ccn2CC(C)(F)F [Compound 126] | 100 | – | 87.1 | 10.5 | 8.67 | – | – | –
N#CCCCn1ccc2c(Nc3c(Cl)cccc3Cl)nccc21 [Compound 50] | 102 | 12.6 | 78 | 302 | – | – | – | –
Cc1cc(C(F)(F)F)cc(C)c1Nc1nccc2c1ccn2CC1CC(F)(F)C1 [Compound 118] | 102 | – | 71.7 | 74.1 | 7.89 | – | – | –
CCCCn1ccc2c(Nc3c(C)cc(-c4cnn(C)c4)cc3C)nccc21 [Compound 54] | 104 | 2.04 | 82 | 20.9 | – | – | – | –
Cc1cc(F)cc(C)c1Nc1nccc2c1ccn2CC1CC(F)(F)C1 [Compound 170] | 100 | 27.5 | 78.6 | 83.2 | – | – | – | –
CCCCn1ccc2c(Nc3c(F)cncc3CC)nccc21 [Compound 44] | 100 | 35.5 | 69 | 302 | – | – | – | –
Cc1ccnc(C)c1Nc1nccc2c1ccn2CC1CCO1 (single isomer, unassigned) [Compound 25b] | – | 4.57 | – | – | – | 101 | 7.63 | 90
Cc1cncc(Cl)c1Nc1nccc2c1ccn2CC1CC1 [Compound 110] | 100 | – | 48 | 363 | 7.54 | – | – | –
Clc1cccc(Cl)c1Nc1nccc2c1ccn2CC1CCO1 (stereo not drawn) [Compound 159] | 104 | – | 84 | 20.4 | 8.87 | – | – | –
CCCCn1ccc2c(Nc3c(C)cncc3C(C)C)nccc21 [Compound 63] | 103 | 2.88 | 93 | 12.3 | – | – | – | –
CCCCn1ccc2c(Nc3c(C)cc(C(=O)NC)cc3C)nccc21 [Compound 57] | 102 | 4.57 | 107 | 11 | – | – | – | –
COCCn1ccc2c(Nc3c(Cl)cncc3Cl)nccc21 [Compound 28] | 83 | 2190 | – | – | – | – | – | –
Cc1cncc(Cl)c1Nc1nccc2c1ccn2CC1COC1 [Compound 30] | 93 | 1410 | – | – | – | – | – | –
Cn1cnc(Cn2ccc3c(Nc4c(Cl)cc(F)cc4Cl)nccc32)c1 [Compound 120] | 99.2 | – | – | – | 6.77 | – | – | –
Cc1ccnc(C)c1Nc1nccc2c1ccn2CCC1CC1(F)F (stereo not drawn) [Compound 94] | 99 | – | – | – | 6.86 | – | – | –
Cc1ccnc(C)c1Nc1nccc2c1ccn2CC(F)(F)F [Compound 79] | 101 | 138 | – | – | – | – | – | –
Cc1ccnc(C)c1Nc1nccc2c1ccn2CC1COC1 [Compound 4] | 93 | – | – | – | 6.03 | – | – | –
